Columns and labels:
[1] = system: ZEAMA Sileno; assay: Safener seed treatment with pre-emergence herbicide application, crop damage test in greenhouse; assay type: in vivo, maize; parameters: key to Reduction [Difference]: difference in % crop damage (visual score vs untreated control); details: for Reduction [%] / Reduction [Difference]: furilazole 0.25 g a.i./kg seed; for HER effect + SAF [%] / HER effect [%]: pre-emergence; for HER effect + SAF [%]: furilazole seed treatment 0.25 g a.i./kg seed; for HER effect [%]: % crop damage
Protocol: Seed Treatment; Pre-Emergence • A) Method Description
For the safener seed treatment, sufficient seeds of the respective crops (spring wheat, TRZAS; spring barley, HORVS; maize, ZEAMA) were weighed into screw top glass bottles approximately twice the volume of the seeds.
The specified safeners, formulated as wettable powder (WP) were weighed out so that the specified rates (g a·i·/kg seed) would be obtained, dissolved in water (1 ml water per 10 g of seeds), and added to the seeds to produce a slurry.
The bottles were capped and then placed in an overhead shaker (set at medium speed for ca. 60 minutes) so that the seeds were evenly coated with the slurry. The bottles were uncapped and the seeds were either placed on paper and dried for an interval of 3-4 hours prior to sowing, or directly sown. Seeds were placed in sandy loam soil in pots of a diameter of 7-8 cm, and covered with soil.
Pre-emergence application of the specified herbicides was done subsequently, on two sets of plants:
a) seed treatment with safener, as described above
The herbicides were formulated as WP and was sprayed onto the soil surface as an aqueous suspension at an equivalent water application rate of 300 1/ha.
After application, the test plants were kept in the greenhouse under good growth conditions. At intervals up to 4 weeks after application (=28 days after treatment; DAT), % crop damage observed on the treated plants was scored visually in comparison to control plants that had not received any safener or herbicide treatment.
Values in the table below are mean values of at least 2 replicates.
(§1) Plant Species, Variety: ZEAMA Sileno, Safener (SAF): Furilazole

[2] = system: ZEAMA Sileno; assay: Tank-mix post-emergence crop damage and safener test in greenhouse; assay type: in vivo, maize; details: final assessment
Protocol: Tank-Mix; Post-Emergence • A) Method Description
Seeds of crops (spring wheat, TRZAS; spring barley, HORVS; maize, ZEAMA) were placed in sandy loam soil in peat pots, covered with soil and cultivated in a greenhouse under good growth conditions. Two to three weeks after sowing, the test plants were treated at the 1 to 3-leaf stage. The herbicide/safener active compound combinations according to the invention, formulated as wettable powders or emulsion concentrates, and, in parallel tests, the correspondingly formulated individual active compounds were sprayed onto the green parts of the plants in various dosages using an amount of water of 300 1/ha (converted).
The pots were returned under good growing conditions in a glasshouse and a visual assessment of herbicidal effects was made at intervals from 1 to 3 weeks after herbicide application (DAT=days after treatment). Assessment was on a percentage basis in comparison with untreated control plants (0%=no injury, 100%=complete kill).
as §1

[3] = herbicide alone 40 g a.i./ha, 14 DAT
[4] = herbicide alone 40 g a.i./ha, 26 DAT
[5] = herbicide alone 80 g a.i./ha, 14 DAT
[6] = herbicide alone 80 g a.i./ha, 26 DAT

SMILES	Reduction [%] ([1]; herbicide 40 g a.i./ha, 14 DAT)	Reduction [Difference] ([1]; herbicide 40 g a.i./ha, 14 DAT)	Reduction [%] ([1]; herbicide 40 g a.i./ha, 26 DAT)	Reduction [Difference] ([1]; herbicide 40 g a.i./ha, 26 DAT)	Reduction [%] ([1]; herbicide 80 g a.i./ha, 14 DAT)	Reduction [Difference] ([1]; herbicide 80 g a.i./ha, 14 DAT)	Reduction [%] ([1]; herbicide 80 g a.i./ha, 26 DAT)	Reduction [Difference] ([1]; herbicide 80 g a.i./ha, 26 DAT)	HER effect + SAF [%] ([1]; herbicide 40 g a.i./ha, 14 DAT)	HER effect + SAF [%] ([1]; herbicide 40 g a.i./ha, 26 DAT)	HER effect + SAF [%] ([1]; herbicide 80 g a.i./ha, 14 DAT)	HER effect + SAF [%] ([1]; herbicide 80 g a.i./ha, 26 DAT)	HER effect [%] [1, 3] [%]	HER effect [%] [1, 4] [%]	HER effect [%] [1, 5] [%]	HER effect [%] [1, 6] [%]	Reduction [%] ([2]; Reduction [Difference]*100/herbicide damage without safener, herbicide 32 g a.i./ha, furilazole 100 g a.i./ha)	Reduction [Difference] ([2]; herbicide damage without safener minus with safener, herbicide 32 g a.i./ha, furilazole 100 g a.i./ha)	HER effect + SAF [%] ([2]; post-emergence tank-mix, herbicide 32 g a.i./ha + furilazole 100 g a.i./ha)	HER effect [%] ([2]; post-emergence, herbicide alone 32 g a.i./ha, visual crop injury (0%=no injury, 100%=complete kill))
C=CC1(C(=O)NC2COC(C(=O)OC)C2)CC(c2cc(F)cc(F)c2)=NO1 (mixture of isomers) [Example 1.68]	73	68	79	75	38	37	40	40	25	20	60	60	93	95	97	100	–	–	–	–
C=CC1(C(=O)NC2C=CC(C(=O)OC)C2)CC(c2cc(F)cc(F)c2)=NO1 (centres unmarked) [Example 1.26]	–	–	80	40	79	55	86	60	–	10	15	10	–	50	70	70	61	57	37	94
COC(=O)C1=C[C@@H](NC(=O)[C@@]2(C)CC(c3cc(F)cc(F)c3)=NO2)CC1 [Example 1.63]	50	30	100	25	–	–	–	–	30	0	–	–	60	25	–	–	–	–	–	–
COCCOC(=O)C1C=CC(NC(=O)C2(C)CC(c3cc(Cl)cc(C#N)c3)=NO2)C1 (centres unmarked) [Example 1.5]	–	–	–	–	33	20	67	30	–	–	40	15	–	–	60	45	–	–	–	–
CSCCOC(=O)C1C=CC(NC(=O)C2(C(F)(F)F)CC(c3cc(F)cc(F)c3)=NO2)C1 (centres unmarked) [Example 1.7]	34	28	–	–	–	–	–	–	55	–	–	–	83	–	–	–	–	–	–	–
COCCOC(=O)C1C=CC(NC(=O)C2(C(F)(F)F)CC(c3cc(F)cc(C#N)c3)=NO2)C1 (centres unmarked) [Example 1.2]	63	25	–	–	100	45	–	–	15	–	0	–	40	–	45	–	–	–	–	–
C=CC1(C(=O)NC2C=C(C(=O)OC)OC2)CC(c2cc(C)cc(C)c2)=NO1 (centres unmarked) [Example 1.90]	–	–	–	–	80	20	100	30	–	–	5	0	–	–	25	30	–	–	–	–
C=CC1(C(=O)NC2COC(C(=O)OC)C2)CC(c2cc(F)cc(F)c2)=NO1 (centres unmarked) [Example 1.69]	37	35	–	–	–	–	–	–	60	–	–	–	95	–	–	–	–	–	–	–
C=CC1(C(=O)NC2COC(C(=O)OC)C2)CC(c2cc(F)cc(F)c2)=NO1 (centres unmarked) [Example 1.70]	44	35	24	20	58	55	63	60	45	65	40	35	80	85	95	95	–	–	–	–
CN(C)C(=O)SCCOC(=O)C1C=CC(NC(=O)C2(C)CC(c3cc(F)cc(F)c3)=NO2)C1 (centres unmarked) [Example 1.29]	–	–	–	–	50	30	–	–	–	–	30	–	–	–	60	–	–	–	–	–
COC(=O)[C@H]1OCC[C@@H]1NC(=O)[C@@]1(C)CC(c2cc(F)cc(F)c2)=NO1 [Example 1.92]	100	75	86	60	–	–	–	–	0	10	–	–	75	70	–	–	–	–	–	–
CC1(C(=O)NC2C=CC(C(=O)O)C2)CC(c2cc(F)cc(F)c2)=NO1 (centres unmarked) [Example 1.36]	–	–	–	–	40	33	–	–	–	–	50	–	–	–	83	–	–	–	–	–
